Reference: patent US4461773A, “P-Oxooxazolidinylbenzene compounds as antibacterial agents” (E. I. DuPont de Nemours and Company, priority 1984, dated 1984)
In brackets after ≈: the same amount, converted by molar mass. Where two headings read alike, the source gives them in different places.

Legend:
S. epidermidis = assay: In vitro broth microdilution minimal inhibitory concentration, S. epidermidis (Table I); format: cell-based; conditions: Staphylococcus epidermidis, read-out: MIC (minimal inhibitory concentration), S. epidermidis
Source text: (§1) A list is presented in Table I of analogs which exert an in-vitro antibacterial effect.

E. Coli [1] = assay: In vitro broth microdilution minimal inhibitory concentration, E. Coli (Table I); format: cell-based; conditions: Escherichia coli, read-out: MIC (minimal inhibitory concentration), E. Coli
Source text: as §1

Staphylococcus aureus = assay: In vivo efficacy in mice infected intraperitoneally with Staphylococcus aureus (Table III); conditions: 4 h, read-out: ED50, S. auerus
Protocol: (§2) In-vivo efficacy determinations were performed by inoculating mice interaperitoneally with cultures of the infecting organism diluted to produce 90-100% mortality in control animals within seven days. The diluents used were trypticase soy broth for E. coli, Proteus sp. and Psuedomonas aeruginosa and 5% hog gastric mucin for Staphylococcus aureus infections. The compounds, dissolved or suspended in 0.25% methocel.cndot.H2 O were administered orally by intubation at the time of infection and again at four hours post-infection. Mortality was recorded daily until test termination and the 50 percent effective dose. ED50, was calculated by the Reed-Muench method (Reed, L. G. and Muench, H., "A simple method of estimating fifty percent end points." American Journal of Hygiene, 27, 1938, 493-497).

E. coli [2] = assay: In vivo efficacy in mice infected intraperitoneally with E. coli (Table III); conditions: Escherichia coli, 4 h, read-out: ED50, E. Coli
Protocol: as §2

E. Coli [3] = assay: In vitro antibacterial spectrum, agar dilution (Table II); format: cell-based; conditions: Escherichia coli, 86 isolates, 24-hour, 35° C.
Protocol: (§3) A summary of the in-vitro antibacterial spectrum of l-4-[5-(hydroxymethyl)-2-oxooxazolidin-3-yl]benzenesulfonamide, is shown in Table II. The minimal inhibitory concentrations for the aerobic and facultative anaerobic test isolates representing two gram-positive and eleven gram-negative genera were determined by an agar dilution method. The method is state of the art and is as follows. Mueller-Hinton agar plates are prepared containing two-fold compound concentrations ranging from 128 μg/ml to 1.0 μg/ml for the susceptibility testing of the bacterial strains except Neisseria gonorrhoea and Hemophilus sp. The latter organisms are tested using GC agar containing 1% Bacto-Supplement C (Difco Laboratories, Detroit, Mich.) and are incubated under 6% CO2. The agar plates are inoculated with a 0.001 ml calibrated loopful of bacterial inoculum diluted to contain 5×10^6 colony-forming units (CFU) per ml.

Enterobacter sp. = assay: as above; format: cell-based; conditions: 41 isolates, 24-hour, 35° C.
Protocol: as §3

Haemophilus sp. = assay: as above; format: cell-based; conditions: 4 isolates, GC agar, 6% CO2, 24-hour, 35° C.
Protocol: as §3

Klebsiella sp. = assay: as above; format: cell-based; conditions: 50 isolates, 24-hour, 35° C.
Protocol: as §3

Neisseria sp. = assay: as above; format: cell-based; conditions: 43 isolates, 24-hour, 35° C.
Protocol: as §3

Proteus sp. = assay: as above; format: cell-based; conditions: 88 isolates, 24-hour, 35° C.
Protocol: as §3

Providencia sp. = assay: as above; format: cell-based; conditions: 12 isolates, 24-hour, 35° C.
Protocol: as §3

Pseudomonas sp. = assay: as above; format: cell-based; conditions: 79 isolates, 24-hour, 35° C.
Protocol: as §3

Salmonella sp. = assay: as above; format: cell-based; conditions: 6 isolates, 24-hour, 35° C.
Protocol: as §3

Serratia sp. = assay: as above; format: cell-based; conditions: 44 isolates, 24-hour, 35° C.
Protocol: as §3

Shiqella sp. = assay: as above; format: cell-based; conditions: 24 h, read-out: MEAN MIC, Shiqella sp.
Protocol: as §3

Staphylococci sp. = assay: as above; format: cell-based; conditions: 38 isolates, 24-hour, 35° C.
Protocol: as §3

Streptococci sp. = assay: as above; format: cell-based; conditions: 14 isolates, 24-hour, 35° C.
Protocol: as §3

Bacteroides sp. = assay: In vitro antibacterial spectrum, agar dilution for anaerobic bacteria (Table II); format: cell-based; conditions: 23 isolates
Protocol: (§4) The agar dilution method described by A. L. Barry ("The Antimicrobic Susceptibility Test: Principles and Practice", 1976, Lea and Febiger, Philadelphia, Pa.) with compound concentrations of 32 μg/ml to 0.06 μg/ml, was used to determine the inhibitory activity of l-4-[5-(hydroxymethyl)-2-oxooxazolidin-3-yl]benzenesulfonamide for anaerobic bacteria.

Clostridium sp. = assay: as above; format: cell-based; conditions: 5 isolates
Protocol: as §4

Fusobacterium sp. = assay: as above; format: cell-based; conditions: 4 isolates
Protocol: as §4

Gram - Anaerobic Cocci = assay: as above; format: cell-based; conditions: 7 isolates
Protocol: as §4

[4] = broth microdilution, Mueller-Hinton broth, 24 hour
[5] = mice, intraperitoneal infection, 5% hog gastric mucin, oral dosing at infection and four hours post-infection, Reed-Muench
[6] = mice, intraperitoneal infection, trypticase soy broth, oral dosing at infection and four hours post-infection, Reed-Muench

Row | SMILES | MIC (S. epidermidis; [4]) [µg/mL] | MIC (E. Coli [1]; [4]) [µg/mL] | ED50 (Staphylococcus aureus; [5]) [mg/kg] | ED50 (E. coli [2]; [6]) [mg/kg] | also measured
1 | O=C1OC(CO)CN1c1ccc(S(=O)(=O)NCl)cc1.[Na] (racemic) [Example 13, dl-N-Chloro-4-[5-(hydroxymethyl)-2-oxooxazolidin-3-yl]benzenesulfonamide, sodium salt] |  |  |  |  | MIC (S. epidermidis; 24 h): 100 µg/mL; MIC (E. Coli [1]; 24 h): 200 µg/mL; ED50 (Staphylococcus aureus; po): 47.4 mg/kg; ED50 (E. coli [2]; po): 43.6 mg/kg
2 | CS(C)=NS(=O)(=O)c1ccc(N2CC(CO)OC2=O)cc1 (racemic) [Example 15, dl-N-{4-[5-(Hydroxymethyl)-2-oxooxazolidin-3-yl]-phenylsulfonyl}-S,S-dimethylsulfilimine] | > 100 | > 100 | 48.5 | 118 | 
3 | NNS(=O)(=O)c1ccc(N2CC(CO)OC2=O)cc1 (racemic) [Example 16, dl-3-[4-Hydrazinosulfonyl)phenyl]-5-(hydroxymethyl)-2-oxazolidin-2-one] | > 100 | > 100 | 119 | > 360 | 
4 | CC(=O)OCC1CN(c2ccc(S(N)(=O)=O)cc2)C(=O)O1 (racemic) [Example 17, dl-4-[5-(Acetoxymethyl)-2-oxooxazolidin-3-yl]benzenesulfonamide] | > 50 | > 50 | 47.1 | 48.9 | 
5 | CCC(=O)OCC1CN(c2ccc(S(N)(=O)=O)cc2)C(=O)O1 (racemic) [Example 19, dl-4-[5-(Propionyloxymethyl)-2-oxooxazolidin-3-yl]-benzenesulfonamide] | 25 (≈ 76.1 µM) | > 100 | 166 | > 360 | 
6 | NS(=O)(=O)c1ccc(N2CC(COC(=O)CCC(=O)O)OC2=O)cc1 (racemic) [Example 20, dl-Butanedioic acid, Mono Ester with 4-[5-(Hydroxymethyl)-2-oxooxazolidin-3-yl]benzenesulfonamide] | > 100 | > 100 | 85.3 | 77.3 | 
7 | NS(=O)(=O)c1ccc(N2CC(CO)OC2=O)cc1 (centres unmarked) [Example 1, 4-[5-(Hydroxymethyl)-2-oxooxazolidin-3-yl]benzenesulfonamide] | 100 (≈ 367 µM) | 100 (≈ 367 µM) | 40.2 | 19.7 | 
8 | NS(=O)(=O)c1ccc(N2C[C@@H](CO)OC2=O)cc1 [Example 2, l-4-[5-(Hydroxymethyl)-2-oxooxazolidin-3-yl]benzenesulfonamide] | 100 (≈ 367 µM) | 50 (≈ 184 µM) | 17.1 | 13.2 | MIC (E. Coli [3]): 29.8 µg/mL (≈ 109 µM); MIC (Enterobacter sp.): 58.5 µg/mL (≈ 215 µM); MIC (Haemophilus sp.): 32 µg/mL (≈ 118 µM); MIC (Klebsiella sp.): 39.4 µg/mL (≈ 145 µM); MIC (Neisseria sp.): 12.3 µg/mL (≈ 45.2 µM); MIC (Proteus sp.): 29.1 µg/mL (≈ 107 µM); MIC (Providencia sp.): 41.3 µg/mL (≈ 152 µM); MIC (Pseudomonas sp.): ≥ 117 µg/mL; MIC (Salmonella sp.): 32 µg/mL (≈ 118 µM); MIC (Serratia sp.): ≥ 96 µg/mL; MIC (Shiqella sp.): 8 µg/mL (≈ 29.4 µM); MIC (Staphylococci sp.): 22.3 µg/mL (≈ 81.9 µM); MIC (Streptococci sp.): 7.7 µg/mL (≈ 28.3 µM); MIC (Bacteroides sp.): ≥ 15.1 µg/mL; MIC (Clostridium sp.): 16.8 µg/mL (≈ 61.7 µM); MIC (Fusobacterium sp.): 0.9 µg/mL (≈ 3.31 µM); MIC (Gram - Anaerobic Cocci): 6.1 µg/mL (≈ 22.4 µM)
9 | [N-]=[N+]=NS(=O)(=O)c1ccc(N2C[C@@H](CO)OC2=O)cc1 [Example 5, l-4-[5-(Hydroxymethyl)-2-oxooxazolidin-3-yl]benzenesulfonyl Azide] | 2.4 (≈ 8.05 µM) | 7.9 (≈ 26.5 µM) | 24.9 | 14.9 | 
10 | CNS(=O)(=O)c1ccc(N2C[C@@H](CO)OC2=O)cc1 [Example 6, l-4-[5-(Hydroxymethyl)-2-oxooxazolidin-3-yl]-N-methylbenzenesulfonamide] | 62.5 (≈ 218 µM) | ≥ 200 | 15.4 | 39.7 | 
11 | COC[C@@H]1CN(c2ccc(S(C)(=O)=O)cc2)C(=O)O1 [Example 32, l-5-(Methoxymethyl)-3-[4-(methylsulfonyl)phenyl]-2-oxazolidinone] | 100 (≈ 350 µM) | > 200 | 5.1 | 11.8 | 
12 | CC(=O)NS(=O)(=O)c1ccc(N2CC(CO)OC2=O)cc1 (centres unmarked) [Example 36, N-[4-[5-(Hydroxymethyl)-2-oxooxazolidin-3-yl]phenylsulfonyl]acetamide] | > 100 | > 100 | > 120 | 56.9 | 
